Source: US20230192622A1, “ANTI-SARS-COV-2 DRUG” (ONCOLYS BIOPHARMA, INC., priority 2020, published 2023)
Where two headings read alike, the source gives them in different places.

What was measured:
SARS-CoV-2 (WK-521) [1] = experiment: Anti-SARS-CoV-2 effect, assay with VeroE6/TMPRSS2 cells (inhibition of virus-induced cell death, Cell Counting Kit-8); assay type: cell-based; settings: for EC50: VeroE6/TMPRSS2 cells, MOI=0.01, 3 days of culture, read-out: EC50: 50% effective concentration (concentration of agent which inhibits cell death induced by SARS-CoV-2 infection by 50%)
VeroE6/TMPRSS2 cells [2] = experiment: Cytotoxicity in uninfected VeroE6/TMPRSS2 cells (viable cell number, Cell Counting Kit-8); settings: read-out: CC50: 50% cytotoxic concentration (concentration of agent which reduces the number of viable cells by 50%), 3 days of culture
in vitro [3] = settings: African green monkey
VeroE6/TMPRSS2 cells [4] = settings: African green monkey, 3 days
SARS-CoV-2 (WK-521) [5] = experiment: microbe, parasite or virus in culture; assay type: cell-based; settings: Severe acute respiratory syndrome coronavirus 2, HEK-293T, 72 h, HEK293T/ACE2 cells, MOI=0.1, 3 days, qPCR of viral RNA in supernatant; for IC90: read-out: IC50(μM) (footnote defines IC90: 90% inhibitory concentration); for IC50: read-out: IC50: 50% inhibitory concentration (reduces viral production and replication by 50%)
in vitro [6] = settings: human
HEK293T/ACE2 cells = settings: human, 3 days

| Molecule | EC50 (SARS-CoV-2 (WK-521) [1]) | CC50 at 3 days (in vitro [3]) | IC90 (SARS-CoV-2 (WK-521) [5]) | IC50 (SARS-CoV-2 (WK-521) [5]) | CC50 at 3 days (in vitro [6]) | further results |
| --- | --- | --- | --- | --- | --- | --- |
| 5-butyl-2-(1′,1′,1′,3′,3′,3′-hexafluoro-2′-hydroxypropan-2′-yl)-7,8,9-trimethoxy-phenanthridin-6(5H)-one [KZ39] | 8.6 µM |  |  |  |  | CC50 (VeroE6/TMPRSS2 cells [2]): > 10 µM |
| CCCCn1c(=O)c2ccccc2c2cc(C(O)(C(F)(F)F)C(F)(F)F)ccc21 [HA-579] | 8.7 µM | > 10 µM |  |  |  |  |
| CCCCn1c(=O)c2ccccc2c2cc(C(O)(C(F)(F)F)C(F)(F)F)c3c(c21)OCO3 [HA-718, 4-butyl-11-(1′,1′,1′,3′,3′,3′-hexafluoro-2′-hydroxypropan-2′-yl)-[1,3]dioxolo [4,5-c]phenanthridin-5(4H)-one] | 3.1 µM | > 10 µM |  |  |  |  |
| CCCCn1c(=O)c2cc(OC)ccc2c2cc(C(O)(C(F)(F)F)C(F)(F)F)c3c(c21)OCO3 [HA-719, 4-butyl-11-(1′,1′,1′,3′,3′,3′-hexafluoro-2′-hydroxypropan-2′-yl)-7-methoxy-[1,3]dioxolo[4,5-c]phenanthridin-5(4H)-one] | 2.6 µM | > 10 µM |  |  |  | cell death due to SARS-CoV-2 infection observed under a microscope (FIG. 2) (SARS-CoV-2 (WK-521) [1]; 5 μM of HA-719, VeroE6/TMPRSS2 cells): almost no cell death was observed |
| CCCCn1c(=O)c2cc(OC)ccc2c2cc(C(O)(C(F)(F)F)C(F)(F)F)c(OC)c(OC)c21 [HA-727, 5-butyl-2-(1′,1′,1′,3′,3′,3′-hexafluoro-2′-hydroxypropan-2′-yl)-3,4,8-trimethoxy-phenanthridin-6(5H)-one] | 4.8 µM | > 10 µM |  |  |  |  |
| CCCCn1c(=O)c2cc3c(cc2c2cc(C(O)(C(F)(F)F)C(F)(F)F)c4c(c21)OCO4)OCO3 [HA-754] | 5 µM | > 10 µM |  |  |  |  |
| CC(C)Cn1c(=O)c2ccccc2c2cc(C(O)(C(F)(F)F)C(F)(F)F)ccc21 [KZ01] | 5.4 µM | > 10 µM |  |  |  |  |
| CCCCn1c(=O)c2ccccc2c2cc(C(O)(C(F)(F)F)C(F)(F)F)cc(C)c21 [KZ07] | 3.3 µM |  |  |  |  | CC50 (VeroE6/TMPRSS2 cells [4]): > 10 µM |
| CCCCn1c(=O)c2ccccc2c2cc(C(O)(C(F)(F)F)C(F)(F)F)cc(OC)c21 [KZ08] | 2.9 µM | > 10 µM |  |  |  |  |
| CCCCn1c(=O)c2cc(OC)ccc2c2cc(C(O)(C(F)(F)F)C(F)(F)F)ccc21 [KZ12] | 8.8 µM | > 10 µM |  |  |  |  |
| CCCCn1c(=O)c2cc(C)ccc2c2cc(C(O)(C(F)(F)F)C(F)(F)F)ccc21 [KZ24] | 4.1 µM |  |  |  |  | CC50 (VeroE6/TMPRSS2 cells [4]): > 10 µM |
| CCCCn1c(=O)c2cc3c(cc2c2cc(C(O)(C(F)(F)F)C(F)(F)F)ccc21)OCO3 [KZ26, 5-butyl-2-(1′,1′,1′,3′,3′,3′-hexafluoro-2′-hydroxypropan-2′-yl)-[1,3] dioxolo[4,5-j] phenanthridin-6(5H)-one] | 2.9 µM | > 10 µM |  |  |  |  |
| CCCCn1c(=O)c2c(OC)cccc2c2cc(C(O)(C(F)(F)F)C(F)(F)F)ccc21 [KZ31, 5-butyl-2-(1′,1′,1′,3′,3′,3′-hexafluoro-2′-hydroxypropan-2′-yl)-7-methoxy-phenanthridin-6(5H)-one] | 3.3 µM | > 10 µM |  |  |  |  |
| CCCCn1c(=O)c2ccc(OC)cc2c2cc(C(O)(C(F)(F)F)C(F)(F)F)ccc21 [KZ32, 5-butyl-2-(1′,1′,1′,3′,3′,3′-hexafluoro-2′-hydroxypropan-2′-yl)-9-methoxy-phenanthridin-6(5H)-one] | 1.8 µM | > 10 µM | 7.37 µM | 1.03 µM | > 20 µM |  |
| CCCCn1c(=O)c2cccc(OC)c2c2cc(C(O)(C(F)(F)F)C(F)(F)F)ccc21 [KZ33, 5-butyl-2-(1′,1′,1′,3′,3′,3′-hexafluoro-2′-hydroxypropan-2′-yl)-10-methoxy-phenanthridin-6(5H)-one] | 4.1 µM | > 10 µM |  |  |  |  |
| CCCCn1c(=O)c2ccc(OCCO)cc2c2cc(C(O)(C(F)(F)F)C(F)(F)F)ccc21 [NR-04, 5-butyl-2-(1,1,1,3,3,3-hexafluoro-2-hydroxypropan-2-yl)-9-(2-hydroxyethoxy)-phenanthridin-6(5H)-one] |  |  | 3.72 µM | 0.489 µM | > 20 µM |  |
| CCCCn1c(=O)c2cc(O)ccc2c2cc(C(O)(C(F)(F)F)C(F)(F)F)cc(OC)c21 [NR-19] |  |  | 4.44 µM | 0.61 µM | > 20 µM |  |
| CCCCn1c(=O)c2cc(OCCO)ccc2c2cc(C(O)(C(F)(F)F)C(F)(F)F)cc(OC)c21 [NR-26] |  |  | 14.8 µM | 1.24 µM | > 20 µM |  |

| Molecule | EC50 (SARS-CoV-2 (WK-521) [1]) | CC50 at 3 days (in vitro [3]) | IC90 (SARS-CoV-2 (WK-521) [5]) | IC50 (SARS-CoV-2 (WK-521) [5]) | CC50 at 3 days (in vitro [6]) | further results |
| --- | --- | --- | --- | --- | --- | --- |
| CCCCn1c(=O)c2ccc(OCC(C)(C)O)cc2c2cc(C(O)(C(F)(F)F)C(F)(F)F)ccc21 [NR-32, 5-butyl-2-(1,1,1,3,3,3-hexafluoro-2-hydroxypropan-2-yl)-9-(2-hydroxy-2-methylpropyloxy)phenanthridin-6(5H)-one] |  |  | 2.34 µM | 0.27 µM | > 20 µM |  |
| CCCCn1c(=O)c2ccc(OC(CO)CO)cc2c2cc(C(O)(C(F)(F)F)C(F)(F)F)ccc21 [NR-46] |  |  | 3.76 µM | 0.44 µM | > 20 µM |  |
| CCCCn1c(=O)c2cc(NC(=O)C3CC3)ccc2c2cc(C(O)(C(F)(F)F)C(F)(F)F)ccc21 [NR-51] |  |  | 1.8 µM | 0.3 µM | 8.4 µM |  |
| CCCCn1c(=O)c2cc(O)c(OC3(C)CNC3)cc2c2cc(C(O)(C(F)(F)F)C(F)(F)F)ccc21 [NR-58] |  |  | 4.69 µM | 1.04 µM | 10.6 µM |  |
| CCCCn1c(=O)c2cc(F)c(OCCN(C)C)cc2c2cc(C(O)(C(F)(F)F)C(F)(F)F)ccc21 [NR-60] |  |  | > 10 µM | 0.95 µM | 6.73 µM |  |
| CCCCn1c(=O)c2cc(F)c(OCCO)cc2c2cc(C(O)(C(F)(F)F)C(F)(F)F)ccc21 [NR-61] |  |  | 4.99 µM | 1.09 µM | 19 µM |  |
| CCCCn1c(=O)c2cc(F)c(OCCNC(C)=O)cc2c2cc(C(O)(C(F)(F)F)C(F)(F)F)ccc21 [NR-62] |  |  | 7.82 µM | 1.28 µM | 13 µM |  |
| CCCCn1c(=O)c2cc(F)c(OCC(N)=O)cc2c2cc(C(O)(C(F)(F)F)C(F)(F)F)ccc21 [NR-63] |  |  | 2.48 µM | 0.21 µM | > 20 µM |  |
| CCCCn1c(=O)c2cc(F)c(O[C@@H]3COC[C@@H]3O)cc2c2cc(C(O)(C(F)(F)F)C(F)(F)F)ccc21 [NR-65] |  |  | 6.76 µM | 0.2 µM | 18.2 µM |  |
| CCCCn1c(=O)c2cc(F)c(OC3CCOC3)cc2c2cc(C(O)(C(F)(F)F)C(F)(F)F)ccc21 (centres unmarked) [NR-66] |  |  | 5.66 µM | 0.8 µM | 13.9 µM |  |
| CCCCn1c(=O)c2cc(OC3CCOC3)c(OC3CCOC3)cc2c2cc(C(O)(C(F)(F)F)C(F)(F)F)ccc21 (centres unmarked) [NR-67] |  |  | > 10 µM | 1.32 µM | 19 µM |  |
| CCCCn1c(=O)c2cc(F)c(OC3COC3)cc2c2cc(C(O)(C(F)(F)F)C(F)(F)F)ccc21 [NR-80] |  |  | 6.16 µM | 0.59 µM | 19.1 µM |  |
| CCCCn1c(=O)c2cc(F)c(OCC(O)CO)cc2c2cc(C(O)(C(F)(F)F)C(F)(F)F)ccc21 (centres unmarked) [NR-82] |  |  | 8.57 µM | 0.95 µM | 14.5 µM |  |
| CCCCn1c(=O)c2cc3c(cc2c2cc(C(O)(C(F)(F)F)C(F)(F)F)ccc21)OC1COCC1O3 (centres unmarked) [NR-84] |  |  | 5.83 µM | 1.74 µM | > 20 µM |  |
| CCCCn1c(=O)c2ccc(OCC(C)=O)cc2c2cc(C(O)(C(F)(F)F)C(F)(F)F)ccc21 [NR-93] |  |  | 3.27 µM | 0.243 µM |  | CC50 (HEK293T/ACE2 cells): > 20 µM |
| CCCCn1c(=O)c2ccc(OCC(=O)NC)cc2c2cc(C(O)(C(F)(F)F)C(F)(F)F)ccc21 [NR-97] |  |  | 3.27 µM | 0.24 µM | > 20 µM |  |
| CCCCn1c(=O)c2ccc(O)cc2c2cc(C(O)(C(F)(F)F)C(F)(F)F)ccc21 [YN029, 5-butyl-2-(1′,1′,1′,3′,3′,3′-hexafluoro-2′-hydroxypropan-2′-yl) hydroxyphenanthridin-6(5H)-one] | 1.9 µM | > 10 µM | 3.04 µM | 0.588 µM | 16.9 µM |  |
| CCCCn1c(=O)c2ccc(C)cc2c2cc(C(O)(C(F)(F)F)C(F)(F)F)ccc21 [YN033] | 6 µM |  |  |  |  | CC50 (VeroE6/TMPRSS2 cells [4]): > 10 µM |
